Key:
Experiment in all cases: NCI-60 single-dose antiproliferative assay (SRB)
Assay type in all cases: cell-based
OVCAR-5 = conditions: Homo sapiens; 10 μM single dose; OVCAR-5, Ovarian Cancer; read-out: Cell Growth inhibition Percent
In short: (§1)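 Cells grown in RPMI 1640 with 5% FBS and 2 mM L-glutamine were plated, left 24 h at 37 °C, then exposed to compound at a single 10 µM final concentration for 48 h. Adherent cells were TCA-fixed, SRB-stained and read at 515 nm; growth was expressed relative to time-zero and untreated controls.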

HS 578T = conditions: Homo sapiens, 10 μM single dose, Breast cancer, read-out: Cell Growth inhibition Percent
In short: as §1

MALME-3 M = conditions: Homo sapiens, 10 μM single dose, Melanoma, read-out: Cell Growth inhibition Percent
In short: as §1

SN12C = conditions: Homo sapiens, 10 μM single dose, Renal cancer, read-out: Cell Growth inhibition Percent
In short: as §1

SF-539 = conditions: Homo sapiens; 10 μM single dose; SF-539, CNS cancer; read-out: Cell Growth inhibition Percent
In short: as §1

786-0 = conditions: Homo sapiens; 10 μM single dose; 786-0, Renal cancer; read-out: Cell Growth inhibition Percent
In short: as §1

T-47D = conditions: Homo sapiens, T47D, 10 μM single dose, Breast cancer, read-out: Cell Growth inhibition Percent
In short: as §1

BT-549 = conditions: Homo sapiens; 10 μM single dose; BT-549, Breast cancer; read-out: Cell Growth inhibition Percent
In short: as §1

OVCAR-8 = conditions: Homo sapiens; 10 μM single dose; OVCAR-8, Ovarian Cancer; read-out: Cell Growth inhibition Percent
In short: as §1

SK-OV-3 = conditions: Homo sapiens; 10 μM single dose; SK-OV-3, Ovarian Cancer; read-out: Cell Growth inhibition Percent
In short: as §1

NCI-H522 = conditions: Homo sapiens; 10 μM single dose; NCI-H522, Non-small cell lung cancer; read-out: Cell Growth inhibition Percent
In short: as §1

NCI-H460 = conditions: Homo sapiens; 10 μM single dose; NCI-H460, Non-small cell lung cancer; read-out: Cell Growth inhibition Percent
In short: as §1

MOLT-4 = conditions: Homo sapiens; 10 μM single dose; MOLT-4, Leukemia; read-out: Cell Growth inhibition Percent
In short: as §1

MDA-MB-435 = conditions: Homo sapiens; 10 μM single dose; MDA-MB-435, Melanoma; read-out: Cell Growth inhibition Percent
In short: as §1

CCRF-CEM = conditions: Homo sapiens, 10 μM single dose, Leukemia, read-out: Cell Growth inhibition Percent
In short: as §1

MDA-MB-468 = conditions: Homo sapiens; 10 μM single dose; MDA-MB-468, Breast cancer; read-out: Cell Growth inhibition Percent
In short: as §1

HT29 = conditions: Homo sapiens, HT-29; 10 μM single dose; HT29, Colon cancer; read-out: Cell Growth inhibition Percent
In short: as §1

COLO205 = conditions: Homo sapiens, COLO 205; 10 μM single dose; COLO205, Colon cancer; read-out: Cell Growth inhibition Percent
In short: as §1

| Structure (SMILES) | inhibition at 10 µM (OVCAR-5) | inhibition at 10 µM (HS 578T) | inhibition at 10 µM (MALME-3 M) | inhibition at 10 µM (SN12C) | inhibition at 10 µM (SF-539) | inhibition at 10 µM (786-0) | inhibition at 10 µM (T-47D) | inhibition at 10 µM (BT-549) | inhibition at 10 µM (OVCAR-8) | inhibition at 10 µM (SK-OV-3) | inhibition at 10 µM (NCI-H522) | inhibition at 10 µM (NCI-H460) | inhibition at 10 µM (MOLT-4) | inhibition at 10 µM (MDA-MB-435) | inhibition at 10 µM (CCRF-CEM) | inhibition at 10 µM (MDA-MB-468) | inhibition at 10 µM (HT29) | inhibition at 10 µM (COLO205) |
| --- | --- | --- | --- | --- | --- | --- | --- | --- | --- | --- | --- | --- | --- | --- | --- | --- | --- | --- |
| O=C1Nc2ccccc2C1=CNc1ccc(C(=O)O)cc1 [Compound 4c, 4-{[(2-Oxoindolin-3-ylidene)methyl]amino}benzoic acid] | 0.03% | 0.5% | 0.23% | 24.8% | 2.79% | 4.08% |  |  |  |  |  |  |  |  |  |  |  |  |
| NS(=O)(=O)c1nnc(NC=C2C(=O)Nc3ccccc32)s1 [Compound 4d, 5-{[(2-Oxoindolin-3-ylidene)methyl]amino}-1,3,4-thiadiazole-2-sulfonamide] |  |  |  |  | 3.69% | 1.8% | 14.8% | 1.21% | 0.12% | 0.47% | 0.13% |  |  |  |  |  |  |  |
| NS(=O)(=O)N/C=C1/C(=O)Nc2ccccc21 [Compound 5, 3-(sulfamidmethylene)indoline-2-one] |  |  |  |  |  |  | 7.19% | 0.96% |  | 5.43% | 5.36% |  |  |  |  |  |  |  |
| O=C1Nc2ccccc2C1=CNc1ccc(C(=O)Nc2ccc(S(=O)(=O)Nc3ncccn3)cc2)cc1 [Compound 9b, 4-{[(2-Oxoindolin-3-ylidene)methyl]amino}-N-{4-[N-(pyrimidin-2-yl)sulfamoyl]phenyl}benzamide] |  |  | 2.09% | 20.5% | 5.04% | 4.99% |  | 27.1% |  |  |  | 1.64% |  |  |  |  |  |  |
| NS(=O)(=O)c1ccc(NCc2ccc(NC=C3C(=O)Nc4ccccc43)cc2)cc1 [Compound 11a, 4-{[4-({[2-Oxoindolin-3-ylidene]methyl}amino)benzyl]amino}benzenesulfonamide] |  |  | 3.16% | 22.9% |  | 0.56% | 6.76% |  |  |  |  |  | 1.28% | 2.04% |  |  |  |  |
| O=C1Nc2ccccc2C1=CNc1ccc(CNc2ccc(S(=O)(=O)Nc3ncccn3)cc2)cc1 [Compound 11b, 4-{[4-({[2-Oxoindolin-3-ylidene]methyl}amino)benzyl]amino}-N-(pyrimidin-2-yl)benzenesulfonamide] |  |  |  |  |  |  | 27.5% | 6.46% | 1.39% |  | 6.92% | 4.26% |  | 32% | 25.4% | 7.66% |  |  |
| O=C1Nc2ccccc2C1=CNc1ccc(C(=O)C=CNc2nccs2)cc1 [Compound 13c, 3-{[(4-{3-[Thiazol-2-ylamino]acryloyl}phenyl)amino]methylene}indolin-2-one] |  |  |  | 11.6% | 1.96% |  |  | 13.6% |  | 3.75% | 2.31% | 7.04% |  | 1.15% | 12.1% | 23.5% | 8.13% | 1.8% |
| O=C(Nc1ccc(NC=C2C(=O)Nc3ccccc32)cc1)Nc1nccs1 [Compound 15c, 1-{4-[((2-Oxoindolin-3-ylidene)methyl)amino]phenyl}-3-(thiazol-2-yl)urea] | 39.6% | 68.5% | 53.1% | 32% | 66.4% | 47.1% | 58.8% |  | 44.3% | 45% |  | 83.2% | 67.8% | 153% |  | 102% | 82.1% | 74.2% |

From publication PMC10353187, “Discovery of a new potent oxindole multi-kinase inhibitor among a series of designed 3-alkenyl-oxindoles with ancillary carbonic anhydrase inhibitory activity as antiproliferative agents” (BMC Chemistry, 2023)
